Assay results as given in patent US20110237493A1, “DIPEPTIDE LINKED MEDICINAL AGENTS” (priority 2008, published 2011).
Read-outs that look alike come from different tables or passages of the source. Where a SMILES comes first, the peptide text is derived from it. [ ]: non-standard residue; d: D form. NHexGly = CCCCCCNCC(=O)O; Sar = CNCC(=O)O

How the values were obtained:
[1] = Rate of model dipeptide cleavage in PBS (HPLC / LC-MS); conditions: for half-life at 1 mg/ml: buffer; for Relative peak area (%) HPLC peak a (molecular weight 702) / Relative peak area (%) HPLC peak b (molecular weight 902): PBS, 37° C.
Description: The solution was incubated at 37° C. […] The dipeptide cleavage was quenched by lowering the pH with an equal volume of 0.1% TFA. The rate of cleavage was qualitatively monitored by LC-MS and quantitatively studied by HPLC. The retention time and relative peak area for the prodrug and the parent model peptide were quantified using Peak Simple Chromatography software.
The flow rate was 1 ml/min.
The concentrations of the prodrugs and the model parent peptide were determined by their respective peak areas, ‘a’ and ‘b’ for each of the different collection times (Table 1). […] The slope of this plot provides the rate constant ‘k’.

[2] = plasma

C[C@@H](O)[C@H](NC(=O)CNC(=O)[C@H](CCCNC(=N)N)NC(=O)[C@H](CO)NC(=O)[C@H](Cc1c[nH]cn1)NC(=O)CN(C)C(=O)[C@@H](N)Cc1ccccc1)C(=O)N[C@@H](Cc1ccccc1)C(N)=O [Compound 34] (H-F[Sar]HSRGTF-NH2)
half-life at 1 mg/ml [1]: 29 h

C[C@@H](O)[C@H](NC(=O)CNC(=O)[C@H](CCCNC(=N)N)NC(=O)[C@H](CO)NC(=O)[C@H](Cc1c[nH]cn1)NC(=O)CN(C)C(=O)CN)C(=O)N[C@@H](Cc1ccccc1)C(N)=O [Compound 27] (H-G[Sar]HSRGTF-NH2)
half-life at 1 mg/ml [1]: 104 h

CCCCCCN(CC(=O)N[C@@H](Cc1c[nH]cn1)C(=O)N[C@@H](CO)C(=O)N[C@@H](CCCNC(=N)N)C(=O)NCC(=O)N[C@H](C(=O)N[C@@H](Cc1ccccc1)C(N)=O)[C@@H](C)O)C(=O)CN [Compound 29] (H-G[NHexGly]HSRGTF-NH2)
half-life at 1 mg/ml [1]: 70 h

C[C@@H](O)[C@H](NC(=O)CNC(=O)[C@H](CCCNC(=N)N)NC(=O)[C@H](CO)NC(=O)[C@H](Cc1c[nH]cn1)NC(=O)CN(C)C(=O)[C@@H](N)CCCCN)C(=O)N[C@@H](Cc1ccccc1)C(N)=O [peptide A, Lys-Sar-HSRGTF-NH2]
Relative peak area (%) HPLC peak a (molecular weight 702) ([1]; 5 h): 26.5% | Relative peak area (%) HPLC peak b (molecular weight 902) ([1]; 5 h): 73.5% | Relative peak area (%) HPLC peak a (molecular weight 702) ([1]; 8 h): 28.9% | Relative peak area (%) HPLC peak b (molecular weight 902) ([1]; 8 h): 71.1% | Relative peak area (%) HPLC peak a (molecular weight 702) ([1]; 24 h): 28.8% | Relative peak area (%) HPLC peak b (molecular weight 902) ([1]; 24 h): 71.2% | Relative peak area (%) HPLC peak a (molecular weight 702) ([1]; 31 h): 77.7% | Relative peak area (%) HPLC peak b (molecular weight 902) ([1]; 31 h): 22.3% | Relative peak area (%) HPLC peak a (molecular weight 702) ([1]; 47 h): 90.0% | Relative peak area (%) HPLC peak b (molecular weight 902) ([1]; 47 h): 10.0% | half-life at 1 mg/ml [1]: 14 h

C[C@@H](O)[C@H](NC(=O)CNC(=O)[C@H](CCCNC(=N)N)NC(=O)[C@H](CO)NC(=O)[C@H](Cc1c[nH]cn1)NC(=O)CN(C)C(=O)[C@@H](N)CCCCN)C(=O)N[C@@H](Cc1ccccc1)C(N)=O [Compound 33]
t1/2 of cleavage of dipeptide A-B ([1]; in PBS, A-B linked to position 1 (X) of model hexapeptide XSRGTF-NH2): 14 h

C[C@H](O)[C@@H](NC(=O)CNC(=O)[C@@H](CCCNC(=N)N)NC(=O)[C@H](NC(=O)[C@@H](Cc1c[nH]cn1)NC(=O)CN(C)C(=O)[C@@H](N)CCCCN)[C@H](C)O)C(=O)N[C@H](Cc1ccccc1)C(N)=O [peptide B, Lys-Sar-dHdTdRGdTdF-NH2] (H-K[Sar][dH][dT][dR]G[dT][dF]-NH2)
Relative peak area (%) HPLC peak a (molecular weight 702) ([2]; 5 h): 17.0% | Relative peak area (%) HPLC peak b (molecular weight 902) ([2]; 5 h): 83.0% | Relative peak area (%) HPLC peak a (molecular weight 702) ([2]; 11 h): 29.2% | Relative peak area (%) HPLC peak b (molecular weight 902) ([2]; 11 h): 70.8% | Relative peak area (%) HPLC peak a (molecular weight 702) ([2]; 24 h): 60.2% | Relative peak area (%) HPLC peak b (molecular weight 902) ([2]; 24 h): 39.8% | Relative peak area (%) HPLC peak a (molecular weight 702) ([2]; 32 h): 54.0% | Relative peak area (%) HPLC peak b (molecular weight 902) ([2]; 32 h): 46.0% | Relative peak area (%) HPLC peak a (molecular weight 702) ([2]; 48 h): 27.6% | Relative peak area (%) HPLC peak b (molecular weight 902) ([2]; 48 h): 72.4%

C[C@@H](O)[C@H](NC(=O)CNC(=O)[C@H](CCCNC(=N)N)NC(=O)[C@H](CO)NC(=O)[C@H](Cc1c[nH]cn1)NC(=O)CN(C)C(=O)[C@H](N)CCCCN)C(=O)N[C@@H](Cc1ccccc1)C(N)=O [Compound 30]
half-life at 1 mg/ml [1]: 27 h

C[C@@H](O)[C@H](NC(=O)CNC(=O)[C@H](CCCNC(=N)N)NC(=O)[C@H](CO)NC(=O)[C@H](Cc1c[nH]cn1)NC(=O)CN(C)C(=O)C(C)(C)N)C(=O)N[C@@H](Cc1ccccc1)C(N)=O [Compound 24]
half-life at 1 mg/ml [1]: 0.817 h

C[C@@H](O)[C@H](NC(=O)CNC(=O)[C@H](CCCNC(=N)N)NC(=O)[C@H](CO)NC(=O)[C@H](Cc1c[nH]cn1)NC(=O)CN(C)C(=O)[C@@H](N)CO)C(=O)N[C@@H](Cc1ccccc1)C(N)=O [Compound 35] (H-S[Sar]HSRGTF-NH2)
half-life at 1 mg/ml [1]: 17 h

CCCCCCN(CC(=O)N[C@@H](Cc1c[nH]cn1)C(=O)N[C@@H](CO)C(=O)N[C@@H](CCCNC(=N)N)C(=O)NCC(=O)N[C@H](C(=O)N[C@@H](Cc1ccccc1)C(N)=O)[C@@H](C)O)C(=O)C(C)(C)N [Compound 25]
half-life at 1 mg/ml [1]: 0.167 h

C[C@@H](O)[C@H](NC(=O)CNC(=O)[C@H](CCCNC(=N)N)NC(=O)[C@H](CO)NC(=O)[C@H](Cc1c[nH]cn1)NC(=O)CN(C)C(=O)CO)C(=O)N[C@@H](Cc1ccccc1)C(N)=O [Compound 28]
half-life at 1 mg/ml [1]: 149 h

C[C@@H](O)[C@H](NC(=O)CNC(=O)[C@H](CCCNC(=N)N)NC(=O)[C@H](CO)NC(=O)[C@H](Cc1c[nH]cn1)NC(=O)CN(C)C(=O)[C@@H]1CCCN1)C(=O)N[C@@H](Cc1ccccc1)C(N)=O [Compound 36] (H-P[Sar]HSRGTF-NH2)
half-life at 1 mg/ml [1]: 181 h
